PubChem BioAssay AID1963447 (Molecular Pharmacology Branch, DTP, NCI, 2024)

Test system: 885512-296-R-J2-PDC complex spheroid growth, % test/control
Experiment: Anticancer human tumor 885512-296-R-J2-PDC patient-derived breast carcinoma cell line growth inhibition [Asc]
Conditions: for IC50: curve of first compound; for viability, T/C: stronger effect = lower value
How it was run: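 Concentration series start at each agent's clinical Cmax, or at 10 microM when none is established, and drop in half-log steps; agents are applied alone or together to complex spheroids built with HUVEC and hMSC.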
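Also: spheroids exposed to compounds for seven days.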
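For viability, T/C in this document: 100% = DMSO vehicle control wells.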

For `O=C(c1cc(Cc2n[nH]c(=O)c3ccccc23)ccc1F)N1CCN(C(=O)C2CC2)CC1` + Cc1c(S(C)(=O)=O)c(-c2cc(F)cc(N3CCN(c4ccc(NS(=O)(=O)c5ccc(NC(CCN6CCC(C(=O)OCCCP(=O)(O)O)CC6)CSc6ccccc6)c(S(=O)(=O)C(F)(F)F)c5)cc4)CC3)c2)c(-c2ccc(Cl)cc2)n1C(C)C, the IC50 (second compound 0.1 µM) was 4.75 µM, the IC50 (second compound 0.316 µM) was 4.35 µM and the IC50 (second compound 1 µM) was 3.76 µM. The IC50 (second compound 3.16 µM) was 3.67 µM, the IC50 (second compound 10 µM) was 3.29 µM and the viability, T/C (second compound 0.1 µM, first compound 0.0316 µM) was 90.8%. It also gave a viability, T/C (second compound 0.1 µM, first compound 0.1 µM) of 105%, a viability, T/C (second compound 0.1 µM, first compound 0.316 µM) of 95.5% and a viability, T/C (second compound 0.1 µM, first compound 1 µM) of 91%. It also gave a viability, T/C (second compound 0.1 µM, first compound 3.16 µM) of 67.9%, a viability, T/C (second compound 0.1 µM, first compound 10 µM) of 17.4% and a viability, T/C (second compound 0.316 µM, first compound 0.0316 µM) of 96.4%. The viability, T/C (second compound 0.316 µM, first compound 0.1 µM) was 96.7%, the viability, T/C (second compound 0.316 µM, first compound 0.316 µM) was 104% and the viability, T/C (second compound 0.316 µM, first compound 1 µM) was 96.6%. It also gave a viability, T/C (second compound 0.316 µM, first compound 3.16 µM) of 64.2%, a viability, T/C (second compound 0.316 µM, first compound 10 µM) of 13.1% and a viability, T/C (second compound 1 µM, first compound 0.0316 µM) of 83.3%. It also gave a viability, T/C (second compound 1 µM, first compound 0.1 µM) of 98.8%, a viability, T/C (second compound 1 µM, first compound 0.316 µM) of 104% and a viability, T/C (second compound 1 µM, first compound 1 µM) of 92%. It also gave a viability, T/C (second compound 1 µM, first compound 3.16 µM) of 56.8%, a viability, T/C (second compound 1 µM, first compound 10 µM) of 11.7% and a viability, T/C (second compound 3.16 µM, first compound 0.0316 µM) of 101%. The viability, T/C (second compound 3.16 µM, first compound 0.1 µM) was 106%, the viability, T/C (second compound 3.16 µM, first compound 0.316 µM) was 99% and the viability, T/C (second compound 3.16 µM, first compound 1 µM) was 88.1%. For the same compound, the viability, T/C (second compound 3.16 µM, first compound 3.16 µM) was 55.7%, the viability, T/C (second compound 3.16 µM, first compound 10 µM) was 11.7% and the viability, T/C (second compound 10 µM, first compound 0.0316 µM) was 125%. The viability, T/C (second compound 10 µM, first compound 0.1 µM) was 113%, the viability, T/C (second compound 10 µM, first compound 0.316 µM) was 97.5% and the viability, T/C (second compound 10 µM, first compound 1 µM) was 90.3%. The viability, T/C (second compound 10 µM, first compound 3.16 µM) was 47.5% and the viability, T/C (second compound 10 µM, first compound 10 µM) was 9.81%.

With `C#Cc1c(F)ccc2cc(O)cc(-c3ncc4c(N5CC6CCC(C5)N6)nc(OCC56CCCN5CC(F)C6)nc4c3F)c12` (stereo not given) + CCN1C(C(=O)NC23CCC(C(=O)O)(CC2)CC3)C(c2cccc(Cl)c2F)C2(C(=O)Nc3cc(Cl)ccc32)C12CCCCC2 the IC50 (second compound 0.03 µM) was > 10 µM, the IC50 (second compound 0.0949 µM) was > 10 µM and the IC50 (second compound 0.3 µM) was > 10 µM. For the same compound, the IC50 (second compound 0.949 µM) was > 10 µM, the IC50 (second compound 3 µM) was < 0.0316 µM and the viability, T/C (second compound 0.03 µM, first compound 0.0316 µM) was 105%. For the same compound, the viability, T/C (second compound 0.03 µM, first compound 0.1 µM) was 98%, the viability, T/C (second compound 0.03 µM, first compound 0.316 µM) was 107% and the viability, T/C (second compound 0.03 µM, first compound 1 µM) was 82.8%. It also gave a viability, T/C (second compound 0.03 µM, first compound 3.16 µM) of 107%, a viability, T/C (second compound 0.03 µM, first compound 10 µM) of 80.3% and a viability, T/C (second compound 0.0949 µM, first compound 0.0316 µM) of 117%. The viability, T/C (second compound 0.0949 µM, first compound 0.1 µM) was 101%, the viability, T/C (second compound 0.0949 µM, first compound 0.316 µM) was 91.4% and the viability, T/C (second compound 0.0949 µM, first compound 1 µM) was 89.1%. For the same compound, the viability, T/C (second compound 0.0949 µM, first compound 3.16 µM) was 95.6%, the viability, T/C (second compound 0.0949 µM, first compound 10 µM) was 83.2% and the viability, T/C (second compound 0.3 µM, first compound 0.0316 µM) was 95.7%. For the same compound, the viability, T/C (second compound 0.3 µM, first compound 0.1 µM) was 86.5%, the viability, T/C (second compound 0.3 µM, first compound 0.316 µM) was 93.3% and the viability, T/C (second compound 0.3 µM, first compound 1 µM) was 82.4%. For the same compound, the viability, T/C (second compound 0.3 µM, first compound 3.16 µM) was 78.3%, the viability, T/C (second compound 0.3 µM, first compound 10 µM) was 88.7% and the viability, T/C (second compound 0.949 µM, first compound 0.0316 µM) was 80.5%. For the same compound, the viability, T/C (second compound 0.949 µM, first compound 0.1 µM) was 59.9%, the viability, T/C (second compound 0.949 µM, first compound 0.316 µM) was 69.1% and the viability, T/C (second compound 0.949 µM, first compound 1 µM) was 64.7%. The viability, T/C (second compound 0.949 µM, first compound 3.16 µM) was 70%, the viability, T/C (second compound 0.949 µM, first compound 10 µM) was 84.7% and the viability, T/C (second compound 3 µM, first compound 0.0316 µM) was 53.7%. For the same compound, the viability, T/C (second compound 3 µM, first compound 0.1 µM) was 42.1%, the viability, T/C (second compound 3 µM, first compound 0.316 µM) was 38% and the viability, T/C (second compound 3 µM, first compound 1 µM) was 43.5%. The viability, T/C (second compound 3 µM, first compound 3.16 µM) was 51.2% and the viability, T/C (second compound 3 µM, first compound 10 µM) was 61.7%.

Work on `NC(=O)C(=Cn1cnc(-c2cc(C(F)(F)F)cc(C(F)(F)F)c2)n1)c1cncnc1` + Cc1c(S(C)(=O)=O)c(-c2cc(F)cc(N3CCN(c4ccc(NS(=O)(=O)c5ccc(NC(CCN6CCC(C(=O)OCCCP(=O)(O)O)CC6)CSc6ccccc6)c(S(=O)(=O)C(F)(F)F)c5)cc4)CC3)c2)c(-c2ccc(Cl)cc2)n1C(C)C yielded an IC50 (second compound 0.1 µM) of 0.0401 µM, an IC50 (second compound 0.316 µM) of 0.0389 µM and an IC50 (second compound 1 µM) of 0.0391 µM. For the same compound, the IC50 (second compound 3.16 µM) was 0.0413 µM, the IC50 (second compound 10 µM) was 0.0461 µM and the viability, T/C (second compound 0.1 µM, first compound 0.000949 µM) was 92.8%. It also gave a viability, T/C (second compound 0.1 µM, first compound 0.003 µM) of 74.5%, a viability, T/C (second compound 0.1 µM, first compound 0.00949 µM) of 81.9% and a viability, T/C (second compound 0.1 µM, first compound 0.03 µM) of 65.5%. It also gave a viability, T/C (second compound 0.1 µM, first compound 0.0949 µM) of 4.49%, a viability, T/C (second compound 0.1 µM, first compound 0.3 µM) of 0.26% and a viability, T/C (second compound 0.316 µM, first compound 0.000949 µM) of 75.8%. For the same compound, the viability, T/C (second compound 0.316 µM, first compound 0.003 µM) was 102%, the viability, T/C (second compound 0.316 µM, first compound 0.00949 µM) was 83% and the viability, T/C (second compound 0.316 µM, first compound 0.03 µM) was 63.3%. It also gave a viability, T/C (second compound 0.316 µM, first compound 0.0949 µM) of 4.42%, a viability, T/C (second compound 0.316 µM, first compound 0.3 µM) of 3.46% and a viability, T/C (second compound 1 µM, first compound 0.000949 µM) of 68.8%. It also gave a viability, T/C (second compound 1 µM, first compound 0.003 µM) of 89.2%, a viability, T/C (second compound 1 µM, first compound 0.00949 µM) of 102% and a viability, T/C (second compound 1 µM, first compound 0.03 µM) of 64.4%. It also gave a viability, T/C (second compound 1 µM, first compound 0.0949 µM) of 3.77%, a viability, T/C (second compound 1 µM, first compound 0.3 µM) of 0.23% and a viability, T/C (second compound 3.16 µM, first compound 0.000949 µM) of 92.9%. For the same compound, the viability, T/C (second compound 3.16 µM, first compound 0.003 µM) was 88.1%, the viability, T/C (second compound 3.16 µM, first compound 0.00949 µM) was 105% and the viability, T/C (second compound 3.16 µM, first compound 0.03 µM) was 67.9%. It also gave a viability, T/C (second compound 3.16 µM, first compound 0.0949 µM) of 4.78%, a viability, T/C (second compound 3.16 µM, first compound 0.3 µM) of 0.2% and a viability, T/C (second compound 10 µM, first compound 0.000949 µM) of 117%. The viability, T/C (second compound 10 µM, first compound 0.003 µM) was 105%, the viability, T/C (second compound 10 µM, first compound 0.00949 µM) was 89.7% and the viability, T/C (second compound 10 µM, first compound 0.03 µM) was 78%. The viability, T/C (second compound 10 µM, first compound 0.0949 µM) was 2.71% and the viability, T/C (second compound 10 µM, first compound 0.3 µM) was 0.25%.
